In ChEMBL document CHEMBL4507299, “Data for DCP probe PF-04554878” (2021):

How the values were obtained:
[1] = target: Mitogen-activated protein kinase kinase kinase kinase 4 (Homo sapiens) (UniProt O95819); assay: MAP4K4 Invitrogen kinase activity assay; details: Compound concentration 1.0 uM
[2] = target: T1, Inhibitor of nuclear factor kappa-B kinase subunit epsilon (Homo sapiens) (UniProt Q14164); assay: IKKi Invitrogen kinase activity assay; details: Compound concentration 1.0 uM
T1 sequence (whole entry): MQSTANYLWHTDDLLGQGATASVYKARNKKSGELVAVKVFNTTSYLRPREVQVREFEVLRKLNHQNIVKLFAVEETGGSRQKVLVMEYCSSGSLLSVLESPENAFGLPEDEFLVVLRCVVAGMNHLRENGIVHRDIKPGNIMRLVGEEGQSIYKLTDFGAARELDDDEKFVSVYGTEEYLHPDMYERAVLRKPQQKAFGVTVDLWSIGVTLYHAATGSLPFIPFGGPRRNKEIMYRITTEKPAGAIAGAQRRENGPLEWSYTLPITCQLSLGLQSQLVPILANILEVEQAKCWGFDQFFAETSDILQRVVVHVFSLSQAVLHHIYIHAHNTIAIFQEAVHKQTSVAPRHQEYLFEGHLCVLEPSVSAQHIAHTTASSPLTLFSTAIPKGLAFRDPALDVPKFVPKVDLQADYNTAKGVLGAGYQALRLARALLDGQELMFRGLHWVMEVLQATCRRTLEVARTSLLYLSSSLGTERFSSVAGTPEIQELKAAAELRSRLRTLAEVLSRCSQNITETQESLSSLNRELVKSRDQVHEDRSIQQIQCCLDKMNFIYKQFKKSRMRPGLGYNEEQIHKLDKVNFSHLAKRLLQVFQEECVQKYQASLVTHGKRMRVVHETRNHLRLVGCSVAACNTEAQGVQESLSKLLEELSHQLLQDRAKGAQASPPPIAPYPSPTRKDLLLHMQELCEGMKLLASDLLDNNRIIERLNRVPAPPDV

[3] = target: Myosin light chain kinase 2, skeletal/cardiac muscle (Homo sapiens) (UniProt Q9H1R3); assay: MYLK2 Invitrogen kinase activity assay; details: Compound concentration 1.0 uM
Myosin light chain kinase 2, skeletal/cardiac muscle (Homo sapiens), sequence (Q9H1R3 whole entry): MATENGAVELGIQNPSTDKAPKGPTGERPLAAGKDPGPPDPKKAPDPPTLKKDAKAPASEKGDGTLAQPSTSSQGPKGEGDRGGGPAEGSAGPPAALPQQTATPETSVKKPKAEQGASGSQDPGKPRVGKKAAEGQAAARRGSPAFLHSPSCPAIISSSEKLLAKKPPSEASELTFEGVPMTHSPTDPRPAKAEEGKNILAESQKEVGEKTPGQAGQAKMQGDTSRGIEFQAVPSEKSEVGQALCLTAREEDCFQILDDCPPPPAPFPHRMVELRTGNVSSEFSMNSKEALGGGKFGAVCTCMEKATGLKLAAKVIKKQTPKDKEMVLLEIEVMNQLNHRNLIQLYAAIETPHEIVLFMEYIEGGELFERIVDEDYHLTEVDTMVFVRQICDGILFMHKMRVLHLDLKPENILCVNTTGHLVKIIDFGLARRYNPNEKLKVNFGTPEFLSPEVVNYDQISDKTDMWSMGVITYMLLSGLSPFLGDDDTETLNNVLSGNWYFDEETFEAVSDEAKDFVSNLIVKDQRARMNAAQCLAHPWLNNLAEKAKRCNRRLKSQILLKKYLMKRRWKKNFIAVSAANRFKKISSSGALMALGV

[4] = target: Epidermal growth factor receptor (Homo sapiens) (UniProt P00533); assay: EGFR Invitrogen kinase activity assay; details: Compound concentration 1.0 uM
Epidermal growth factor receptor (Homo sapiens), sequence (P00533 whole entry): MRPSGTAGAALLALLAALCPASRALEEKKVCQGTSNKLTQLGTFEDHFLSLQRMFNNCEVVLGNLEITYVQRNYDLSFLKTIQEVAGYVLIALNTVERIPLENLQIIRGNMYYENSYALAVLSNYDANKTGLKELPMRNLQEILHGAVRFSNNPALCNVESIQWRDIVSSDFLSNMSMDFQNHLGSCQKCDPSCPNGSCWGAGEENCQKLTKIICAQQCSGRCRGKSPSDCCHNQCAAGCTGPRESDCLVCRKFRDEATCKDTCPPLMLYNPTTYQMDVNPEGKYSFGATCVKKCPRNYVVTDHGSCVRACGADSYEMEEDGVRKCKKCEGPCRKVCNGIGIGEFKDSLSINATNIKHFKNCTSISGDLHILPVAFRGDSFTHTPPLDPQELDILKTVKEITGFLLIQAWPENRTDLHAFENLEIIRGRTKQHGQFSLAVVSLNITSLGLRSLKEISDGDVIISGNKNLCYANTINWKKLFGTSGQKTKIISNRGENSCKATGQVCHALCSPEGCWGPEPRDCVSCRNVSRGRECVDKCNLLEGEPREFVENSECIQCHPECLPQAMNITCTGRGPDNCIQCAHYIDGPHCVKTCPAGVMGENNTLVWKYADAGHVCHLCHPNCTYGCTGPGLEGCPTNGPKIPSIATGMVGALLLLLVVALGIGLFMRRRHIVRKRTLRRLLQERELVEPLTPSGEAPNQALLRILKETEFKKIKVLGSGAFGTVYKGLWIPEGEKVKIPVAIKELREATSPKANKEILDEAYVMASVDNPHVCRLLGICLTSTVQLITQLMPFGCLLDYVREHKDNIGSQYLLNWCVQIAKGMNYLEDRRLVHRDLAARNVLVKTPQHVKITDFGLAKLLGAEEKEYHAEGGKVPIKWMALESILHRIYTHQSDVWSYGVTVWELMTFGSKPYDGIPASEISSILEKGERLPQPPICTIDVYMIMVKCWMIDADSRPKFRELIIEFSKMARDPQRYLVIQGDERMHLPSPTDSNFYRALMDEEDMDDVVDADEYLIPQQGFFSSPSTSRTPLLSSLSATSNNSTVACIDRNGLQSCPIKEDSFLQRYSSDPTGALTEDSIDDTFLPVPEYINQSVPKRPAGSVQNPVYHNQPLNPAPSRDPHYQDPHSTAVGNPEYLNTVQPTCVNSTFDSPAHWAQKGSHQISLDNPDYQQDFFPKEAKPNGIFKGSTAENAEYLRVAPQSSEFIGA

[5] = target: Protein kinase C beta type (Homo sapiens) (UniProt P05771); assay: PKCbeta II Invitrogen kinase activity assay; details: Compound concentration 1.0 uM
[6] = target: Dual specificity protein kinase CLK1 (Homo sapiens, UniProt P49759); assay: CLK1 Invitrogen kinase activity assay
[7] = target: Insulin receptor (Homo sapiens) (UniProt P06213); assay: INSR Invitrogen kinase activity assay; details: Compound concentration 1.0 uM
[8] = target: Kappa-type opioid receptor (Homo sapiens) (UniProt P41145); details: Compound concentration 10.0 uM
Kappa-type opioid receptor (Homo sapiens), sequence (P41145 whole entry): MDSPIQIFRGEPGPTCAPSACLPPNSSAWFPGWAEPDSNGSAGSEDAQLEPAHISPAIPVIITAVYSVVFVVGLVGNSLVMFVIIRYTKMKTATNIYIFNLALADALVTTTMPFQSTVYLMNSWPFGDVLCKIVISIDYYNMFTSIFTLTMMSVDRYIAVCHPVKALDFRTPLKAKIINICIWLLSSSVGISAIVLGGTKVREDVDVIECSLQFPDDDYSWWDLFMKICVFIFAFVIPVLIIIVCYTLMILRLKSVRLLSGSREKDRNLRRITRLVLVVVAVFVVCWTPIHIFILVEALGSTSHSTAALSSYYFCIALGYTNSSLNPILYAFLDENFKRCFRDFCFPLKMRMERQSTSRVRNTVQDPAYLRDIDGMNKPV

[9] = target: T2, Tyrosine-protein kinase JAK3 (Homo sapiens) (UniProt P52333); details: Compound concentration 1.0 uM
T2 sequence (whole entry): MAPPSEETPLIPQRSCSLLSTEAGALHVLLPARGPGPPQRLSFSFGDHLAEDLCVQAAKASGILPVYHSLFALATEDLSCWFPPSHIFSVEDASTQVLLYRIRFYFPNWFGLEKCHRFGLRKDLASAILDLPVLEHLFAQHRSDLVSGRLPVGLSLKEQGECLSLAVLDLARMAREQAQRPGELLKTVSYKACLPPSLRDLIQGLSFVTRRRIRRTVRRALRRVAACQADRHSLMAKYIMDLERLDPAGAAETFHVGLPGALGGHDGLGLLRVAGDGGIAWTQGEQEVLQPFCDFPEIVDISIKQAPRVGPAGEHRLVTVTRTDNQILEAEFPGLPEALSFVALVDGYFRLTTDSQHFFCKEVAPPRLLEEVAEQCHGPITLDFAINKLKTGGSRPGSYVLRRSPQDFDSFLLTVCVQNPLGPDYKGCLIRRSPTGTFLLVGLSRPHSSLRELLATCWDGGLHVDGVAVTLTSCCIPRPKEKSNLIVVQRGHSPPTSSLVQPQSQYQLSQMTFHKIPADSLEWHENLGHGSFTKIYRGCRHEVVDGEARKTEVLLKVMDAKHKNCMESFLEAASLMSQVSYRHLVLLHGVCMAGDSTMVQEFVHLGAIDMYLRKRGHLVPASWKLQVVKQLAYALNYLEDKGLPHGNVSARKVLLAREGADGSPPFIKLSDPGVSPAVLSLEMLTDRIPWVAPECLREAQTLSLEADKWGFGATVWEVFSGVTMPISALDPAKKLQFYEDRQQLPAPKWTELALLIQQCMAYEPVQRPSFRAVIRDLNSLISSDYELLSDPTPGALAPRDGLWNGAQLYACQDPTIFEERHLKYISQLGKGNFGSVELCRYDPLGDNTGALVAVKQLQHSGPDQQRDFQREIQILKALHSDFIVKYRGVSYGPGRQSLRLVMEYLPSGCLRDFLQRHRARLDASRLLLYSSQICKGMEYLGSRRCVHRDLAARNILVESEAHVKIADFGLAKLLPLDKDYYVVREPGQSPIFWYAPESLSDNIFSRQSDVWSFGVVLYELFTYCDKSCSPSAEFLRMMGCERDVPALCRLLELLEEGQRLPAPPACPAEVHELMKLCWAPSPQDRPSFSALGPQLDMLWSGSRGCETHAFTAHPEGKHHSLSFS

[10] = target: RAC-alpha serine/threonine-protein kinase (Homo sapiens) (UniProt P31749); assay: AKT1 Invitrogen kinase activity assay; details: Compound concentration 1.0 uM
[11] = target: Serine/threonine-protein kinase 26 (Homo sapiens) (UniProt Q9P289); assay: MASK Invitrogen kinase activity assay; details: Compound concentration 1.0 uM
[12] = target: 5-hydroxytryptamine receptor 1E (Homo sapiens) (UniProt P28566); details: Compound concentration 10.0 uM
5-hydroxytryptamine receptor 1E (Homo sapiens), sequence (P28566 whole entry): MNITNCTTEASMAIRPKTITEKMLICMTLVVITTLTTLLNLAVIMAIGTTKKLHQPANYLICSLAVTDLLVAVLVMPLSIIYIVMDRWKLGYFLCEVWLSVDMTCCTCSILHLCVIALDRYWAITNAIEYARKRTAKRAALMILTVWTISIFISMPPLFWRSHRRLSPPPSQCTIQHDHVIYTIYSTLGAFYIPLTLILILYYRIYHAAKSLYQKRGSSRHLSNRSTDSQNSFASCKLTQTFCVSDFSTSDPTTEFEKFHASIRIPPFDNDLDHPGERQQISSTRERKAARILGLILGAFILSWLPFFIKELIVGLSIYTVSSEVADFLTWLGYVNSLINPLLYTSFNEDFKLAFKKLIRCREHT

[13] = target: 3-phosphoinositide-dependent protein kinase 1 (Homo sapiens) (UniProt O15530); assay: PDK1 Invitrogen kinase activity assay; details: Compound concentration 1.0 uM
[14] = target: 5-hydroxytryptamine receptor 1A (Homo sapiens) (UniProt P08908); details: Compound concentration 10.0 uM
[15] = target: Tyrosine-protein kinase BTK (Homo sapiens) (UniProt Q06187); assay: BTK Invitrogen kinase activity assay; details: Compound concentration 1.0 uM
[16] = target: Hepatocyte growth factor receptor (Homo sapiens) (UniProt P08581); assay: MET Invitrogen kinase activity assay; details: Compound concentration 1.0 uM
Hepatocyte growth factor receptor (Homo sapiens), sequence (P08581 whole entry): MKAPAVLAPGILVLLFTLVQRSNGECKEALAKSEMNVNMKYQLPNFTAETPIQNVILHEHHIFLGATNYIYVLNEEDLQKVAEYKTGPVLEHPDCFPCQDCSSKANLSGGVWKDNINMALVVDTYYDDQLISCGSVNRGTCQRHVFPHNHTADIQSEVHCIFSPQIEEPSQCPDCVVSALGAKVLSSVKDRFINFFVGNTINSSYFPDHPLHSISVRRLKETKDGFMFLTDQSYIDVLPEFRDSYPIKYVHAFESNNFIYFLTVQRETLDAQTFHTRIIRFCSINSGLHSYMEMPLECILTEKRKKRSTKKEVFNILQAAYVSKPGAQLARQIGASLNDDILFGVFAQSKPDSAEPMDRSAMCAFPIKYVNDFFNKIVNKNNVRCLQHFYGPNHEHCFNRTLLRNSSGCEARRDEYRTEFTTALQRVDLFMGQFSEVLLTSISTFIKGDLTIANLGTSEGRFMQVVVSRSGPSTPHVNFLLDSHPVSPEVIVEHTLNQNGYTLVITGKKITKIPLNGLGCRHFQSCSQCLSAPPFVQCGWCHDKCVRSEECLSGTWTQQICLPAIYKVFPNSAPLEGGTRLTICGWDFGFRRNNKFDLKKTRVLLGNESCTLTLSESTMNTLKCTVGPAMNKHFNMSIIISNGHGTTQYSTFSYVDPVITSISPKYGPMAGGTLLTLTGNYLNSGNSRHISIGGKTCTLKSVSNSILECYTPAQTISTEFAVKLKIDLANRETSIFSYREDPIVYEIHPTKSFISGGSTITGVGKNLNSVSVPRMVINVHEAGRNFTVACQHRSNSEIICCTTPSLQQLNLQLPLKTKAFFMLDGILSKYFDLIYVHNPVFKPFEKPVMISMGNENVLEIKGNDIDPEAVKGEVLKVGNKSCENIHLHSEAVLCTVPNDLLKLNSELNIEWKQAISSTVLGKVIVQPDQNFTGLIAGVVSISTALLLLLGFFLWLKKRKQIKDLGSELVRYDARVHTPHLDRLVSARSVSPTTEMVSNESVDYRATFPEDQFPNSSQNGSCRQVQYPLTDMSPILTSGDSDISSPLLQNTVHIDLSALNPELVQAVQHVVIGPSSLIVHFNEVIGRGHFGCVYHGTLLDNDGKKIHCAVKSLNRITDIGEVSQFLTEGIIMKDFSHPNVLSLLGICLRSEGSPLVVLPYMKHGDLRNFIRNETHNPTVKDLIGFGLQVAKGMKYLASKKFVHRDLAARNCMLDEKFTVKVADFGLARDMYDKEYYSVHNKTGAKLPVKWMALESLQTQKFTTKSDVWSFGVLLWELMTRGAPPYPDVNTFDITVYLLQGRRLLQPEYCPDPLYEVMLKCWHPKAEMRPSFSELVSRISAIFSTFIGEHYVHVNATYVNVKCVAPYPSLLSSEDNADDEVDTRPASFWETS

[17] = target: Serine/threonine-protein kinase Chk2 (Homo sapiens) (UniProt O96017); assay: CHK2 Invitrogen kinase activity assay; details: Compound concentration 1.0 uM
Serine/threonine-protein kinase Chk2 (Homo sapiens), sequence (O96017 whole entry): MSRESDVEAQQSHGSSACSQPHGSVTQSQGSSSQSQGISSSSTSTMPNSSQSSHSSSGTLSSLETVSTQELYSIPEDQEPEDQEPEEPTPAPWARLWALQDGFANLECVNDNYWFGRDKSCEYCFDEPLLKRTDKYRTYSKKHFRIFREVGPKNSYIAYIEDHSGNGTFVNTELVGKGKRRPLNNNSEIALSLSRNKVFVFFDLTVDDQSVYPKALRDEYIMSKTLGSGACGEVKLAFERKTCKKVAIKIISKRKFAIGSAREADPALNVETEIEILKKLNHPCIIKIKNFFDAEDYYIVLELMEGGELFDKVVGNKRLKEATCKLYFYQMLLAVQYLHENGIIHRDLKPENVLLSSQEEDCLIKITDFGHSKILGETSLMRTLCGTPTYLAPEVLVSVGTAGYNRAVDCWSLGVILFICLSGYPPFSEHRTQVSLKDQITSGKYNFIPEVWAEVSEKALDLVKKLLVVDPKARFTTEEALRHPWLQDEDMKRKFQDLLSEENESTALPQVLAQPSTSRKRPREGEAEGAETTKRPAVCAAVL

[18] = target: Serine/threonine-protein kinase PAK 4 (Homo sapiens) (UniProt O96013); assay: PAK4 Invitrogen kinase activity assay; details: Compound concentration 1.0 uM
Serine/threonine-protein kinase PAK 4 (Homo sapiens), sequence (O96013 whole entry, looked up): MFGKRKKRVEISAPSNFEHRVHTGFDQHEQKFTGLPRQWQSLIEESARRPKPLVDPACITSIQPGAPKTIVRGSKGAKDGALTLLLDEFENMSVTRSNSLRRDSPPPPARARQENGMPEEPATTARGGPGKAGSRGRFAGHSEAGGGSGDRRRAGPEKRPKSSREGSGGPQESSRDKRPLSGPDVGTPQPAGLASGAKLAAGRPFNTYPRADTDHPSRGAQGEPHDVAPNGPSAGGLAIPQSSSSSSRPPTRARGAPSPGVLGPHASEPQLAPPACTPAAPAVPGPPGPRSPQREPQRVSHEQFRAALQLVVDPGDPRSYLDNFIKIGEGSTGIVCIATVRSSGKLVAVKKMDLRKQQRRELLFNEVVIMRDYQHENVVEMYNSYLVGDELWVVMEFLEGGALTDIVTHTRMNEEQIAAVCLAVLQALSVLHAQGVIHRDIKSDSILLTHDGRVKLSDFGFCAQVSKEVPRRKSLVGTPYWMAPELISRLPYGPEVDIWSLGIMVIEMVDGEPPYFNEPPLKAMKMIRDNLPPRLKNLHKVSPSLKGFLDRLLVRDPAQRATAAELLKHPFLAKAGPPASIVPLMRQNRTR

[19] = target: Vascular endothelial growth factor receptor 2 (Homo sapiens) (UniProt P35968); assay: VEGFR2/Flk1 Invitrogen kinase activity assay; details: Compound concentration 1.0 uM
[20] = target: NEK kinase (Homo sapiens) (UniProt P51955+Q9HC98+Q8TDX7+Q6P3R8+Q8TD19+Q8NG66+P51956+P51957+Q96PY6+Q86SG6+Q6ZWH5); assay: NEK Invitrogen kinase activity assay; assay type: protein assay; details: Compound concentration 1.0 uM
[21] = target: Sigma intracellular receptor 2 (Homo sapiens, UniProt Q5BJF2); assay: GPCRScan assay: inhibition of Sigma 2; design: radioligand conc. used [nm] 5.0, parental cells HEKT

CNC(=O)c1ccc(Nc2ncc(C(F)(F)F)c(NCc3nccnc3N(C)S(C)(=O)=O)n2)cc1 [DEFACTINIB]
inhibition [1]: 28% | inhibition [2]: 8% | inhibition [3]: 8% | inhibition [4]: 13% | inhibition [5]: 15% | IC50 [6]: 250 nM | inhibition ([6]; Compound concentration 1.0 uM): 99% | inhibition [7]: 50% | inhibition [8]: 10.8% | inhibition [9]: 94% | inhibition [10]: 4% | inhibition [11]: 46% | inhibition [12]: 18.2% | inhibition [13]: 25% | inhibition [14]: -9.76% | inhibition [15]: 14% | inhibition [16]: 54% | inhibition [17]: 28% | inhibition [18]: 69% | inhibition [19]: 68% | inhibition [20]: 12%

CN(c1ccnc(CNc2nc(Nc3ccc4c(c3)CC(=O)N4)ncc2C(F)(F)F)n1)S(C)(=O)=O [PF-00911705]
Ki [21]: 2120 nM
